Source: patent US20050180932A1, “Ultraviolet absorption compositions” (AJINOMOTO CO. INC, priority 2002, published 2005)
Where a name gives a salt, the structure may show the parent alone.

Legend:
[1] = Wavelength at the maximum UV absorption and molar absorption coefficient (UV spectrometer, water/alcohol solution); assay type: physicochemical; conditions: for Amide-containing guanidine derivative: Mol.Abs.Coef. (ε) / Starting UV absorbent: Mol.Abs.Coef. (ε): in M-1cm-1 (unit assumed); for Amide-containing guanidine derivative: Wavelength / Starting UV absorbent: Wavelength: UV absorption maximum
Method: The wavelength showing the maximum absorption was measured by means of a UV spectrometer in a water and/or alcohol solution of R^1COOH or its salt as mentioned in detail in the Examples.
Test 1. Wavelength at the Maximum Absorption

[2] = Solubility in water at room temperature; assay type: physicochemical

With `CCCCCCCCCCCCOc1ccc(/C=C/C(=O)N[C@@H](CCCNC(=N)N)C(=O)O)cc1` [Compound 6, N-paradodecyloxycinnamoylarginine] the “Amide-containing guanidine derivative: Mol.Abs.Coef. (ε)” value ([1]; 40% isopropyl alcohol solution) was 25740 and the “Amide-containing guanidine derivative: Wavelength” value ([1]; 40% isopropyl alcohol solution) was 308 nm.

For `O=C(O)C=Cc1ccccc1` [Starting UV absorbent of Prep.1, cinnamic acid, reference compound], the “Starting UV absorbent: Mol.Abs.Coef. (ε)” value ([1]; 30% methanol solution) was 18661 and the “Starting UV absorbent: Wavelength” value ([1]; 30% methanol solution) was 279 nm.

In the case of `CCCCCCCCCCCCOc1ccc(C=CC(=O)NCCCCNC(=N)N)cc1.Cl` [Compound 5, N-paradodecyloxycinnamoylamidobutylguanidine hydrochloride], the “Solubility of amide-containing guanidine derivative” value [2] was greater than 7 wt %.

With `N=C(N)NCCCCNC(=O)C=Cc1ccccc1.N=C(N)NCCCCNC(=O)C=Cc1ccccc1.O=S(=O)(O)O` [Compound 1, N-cinnamoylamidobutylguanidine ½ sulfate] the “Amide-containing guanidine derivative: Mol.Abs.Coef. (ε)” value ([1]; 30% methanol solution) was 21885 and the “Amide-containing guanidine derivative: Wavelength” value ([1]; 30% methanol solution) was 280 nm.

For `COc1ccc(C=CC(=O)O)cc1` [Starting UV absorbent of Prep.3, p-methoxycinnamic acid, reference compound], the “Starting UV absorbent: Mol.Abs.Coef. (ε)” value ([1]; 30% methanol solution) was 20845, the “Starting UV absorbent: Wavelength” value ([1]; 30% methanol solution) was 307 nm and the “Solubility of starting UV absorbent” value [2] was less than 0.1 wt %.

In the case of `COc1ccc(C=CC(=O)N[C@@H](CCCNC(=N)N)C(=O)O)cc1` [Compound 3, N-paramethoxycinnamoylarginine], the “Amide-containing guanidine derivative: Mol.Abs.Coef. (ε)” value ([1]; 30% methanol solution) was 24977 and the “Amide-containing guanidine derivative: Wavelength” value ([1]; 30% methanol solution) was 307 nm.

With `CCCCCCCCCCCCOc1ccc(C=CC(=O)O)cc1` [Starting UV absorbent of Prep.4, p-dodecyloxycinnamic acid, reference compound] the “Starting UV absorbent: Mol.Abs.Coef. (ε)” value ([1]; 40% isopropyl alcohol solution) was 21246, the “Starting UV absorbent: Wavelength” value ([1]; 40% isopropyl alcohol solution) was 309 nm and the “Solubility of starting UV absorbent” value [2] was less than 0.01 wt %.

In the case of `Cl.N=C(N)NCCCCNC(=O)C=Cc1ccccc1` [Compound 2, N-cinnamoylamidobutylguanidine hydrochloride], the “Solubility of amide-containing guanidine derivative” value [2] was greater than 15 wt %.

For `CCCCCCCCCCCCOc1ccc(C=CC(=O)NCCCCNC(=N)N)cc1.CCCCCCCCCCCCOc1ccc(C=CC(=O)NCCCCNC(=N)N)cc1.O=S(=O)(O)O` [Compound 4, N-paradodecyloxycinnamoylamidobutylguanidine ½ sulfate], the “Amide-containing guanidine derivative: Mol.Abs.Coef. (ε)” value ([1]; 40% isopropyl alcohol solution) was 24122 and the “Amide-containing guanidine derivative: Wavelength” value ([1]; 40% isopropyl alcohol solution) was 307 nm.

For `COc1ccc(C=CC(=O)N[C@@H](CCCNC(=N)N)C(=O)O)cc1` [Compound 3 (HCl salt)], the “Solubility of amide-containing guanidine derivative” value [2] was greater than 15 wt %.
